GI50 and TGI data for eight compounds are collected here from PubChem BioAssay (NCI).

Test in all cases: DTP human tumour cell line panel, 48 h
Assay [1] has as its system IGROV1 ovarian.
The test system of assay [2] is NCI-H23 lung.
Assay [3] has as its system SW-620 colon.
Assay [4] has as its system K-562 leukemia.
In assay [5] the test system is SNB-19 CNS.
Assay [6] has as its system UACC-62 melanoma.
The test system of assay [7] is SK-MEL-2 melanoma.
The test system of assay [8] is SF-539 CNS.
Assay [9] deals with UO-31 renal.
Assay [10] concerns NCI-H522 lung.

SMILES strings stand for the structures. “And” between values parts separate entries of the source, which are not always exact repeats. Equal entries are not always repeated.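 Dose response: 5 concentrations. Exposure: 48 h. Format: 96-well plates. Endpoint: linear interpolation; highest concentration if not reached. Abbreviation: GI50, concentration required for 50% inhibition of growth. TGI is the concentration that stops growth completely.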 A value given as a limit tells only on which side of the number the result lay.

For `Nc1nc2ccc([C@@H]3Nc4ccc5[nH]ncc5c4[C@H]4[C@H]5CCC(C5)[C@H]43)cc2s1`, the GI50 (commonly the concentration at which growth is held to half of that of the control) in assay [1] was 1 µM; in [2], 1.58 µM; in assay [3], 0.474 µM; in assay [4], 0.328 µM; in [5], 1.3 µM; in [6], 1.51 µM. Besides, the GI50 in assay [7] is 1.82 µM; in assay [8], 0.812 µM; in [9], 1.78 µM; in assay [10], 1.38 µM. Also, the TGI (usually the concentration giving total growth inhibition) turned out to be 9.84 µM in assay [1]; 3.72 µM in assay [2]; 1.87 µM in assay [3]; 5.87 µM in [4]; 11 µM in [5]; 3.05 µM in [6]. The TGI in [7] turned out to be 6.79 µM; in assay [8], 2.88 µM; in assay [9] it was 12.2 µM; in [10], 3.4 µM.
`COC(=O)c1ccc(=O)c2nc3/c(=C/O)c(O)cc(=O)c3[nH]c12`: the GI50 in [1] was 0.469 µM; in assay [2], 0.514 µM; in [3], 1.21 µM; in assay [4], 0.372 µM; in assay [5], 1.28 µM; in assay [6], 1.01 µM. Also, the GI50 in assay [7] was 2.27 µM; in assay [8], 1.21 µM; in assay [9] it was 0.578 µM; in [10], 0.389 µM. Also, the TGI in assay [1] was 3.31 µM and 17.5 µM; in assay [2], 9.33 µM and 16.7 µM; in assay [3] it was > 60.4 µM and 18.9 µM; in assay [4] it was > 100 µM; in [5], 32.2 µM and 20.4 µM; in [6] it was 7.26 µM and 7.01 µM. For the same compound, the TGI is 15 µM and 16.7 µM in assay [7]; 15.6 µM and 14.5 µM in assay [8]; 8.11 µM and 18 µM in [9]; 31 µM and 18.2 µM in assay [10].
For `C=C1C(=O)O[C@H]2[C@H]1CC/C(COC(=O)C(=O)c1c[nH]c3ccc(OC)cc13)=C\CC[C@@]1(C)O[C@@H]21`, the GI50 in assay [1] was 3.22 µM; in assay [2], 7.01 µM; in assay [3], 4 µM; in assay [4] it was > 100 µM; in assay [5], 8.97 µM; in assay [6], 3.21 µM. For the same compound, the values for the GI50 in [8], in [9] and in assay [10] were 6.15 µM, 4.6 µM and 5.34 µM, respectively. The TGI in assay [1] was 7.64 µM; in assay [2], 13.8 µM; in [3], 16.2 µM; in [4] it was > 100 µM; in [5], 19.6 µM; in assay [6], 7.49 µM. The TGI is > 20.4 µM in assay [7], 10.4 µM in [8], 7.91 µM in [9] and 9.31 µM in [10].
As to `O=C1C=CC(=O)C1(Br)Br`, the TGI in [1] is 13.7 µM; in assay [2] it was 39.9 µM; in assay [3], 27.9 µM; in assay [4], > 95.1 µM; in assay [5], 31.8 µM; in assay [6], 25.3 µM. For the same compound, the TGI in [7] came out at 31.4 µM; in [8] it was 30.4 µM; in assay [9] it was 18.7 µM; in [10] it was 14.4 µM.
Take `COc1cc2c3c(n(CCCN)c(=O)c2cc1OC)-c1ccc(F)cc1C3=O`: the GI50 in assay [1] is 1.82 µM; in assay [2], 1.65 µM; in assay [3], 1.17 µM; in [4], 1.24 µM; in assay [5], 1.47 µM; in assay [6] it was 0.925 µM. For the same compound, the GI50 in [7] is 17 µM; in assay [8], 1.28 µM; in [9], 8.15 µM; in [10], 2.35 µM. For the same compound, the TGI in [1] came out at 7.68 µM; in [2], 9.39 µM; in assay [3], 15.5 µM; in [4], 5.28 µM; in assay [5] it was 15.9 µM; in assay [6], 5.76 µM. The TGI in assay [7] worked out at 34.7 µM; in assay [8] it was 3.17 µM; in [9], 23.7 µM; in [10], 20.3 µM.
For `COc1c2ccccc2c(O)c2c(=O)c(C(=O)O)cn(C)c12`, the GI50 in assay [1] was > 100 µM; in [2], > 100 µM; in [3], > 100 µM; in [4] it was > 100 µM; in assay [5], > 100 µM; in assay [6], 24.7 µM. Moreover, the GI50 is > 100 µM in [7], 35.9 µM in [8], > 100 µM in [9] and > 100 µM in [10]. Besides, the TGI in [1], in [2], in assay [3], in assay [4], in [5] and in assay [6] was > 100 µM each time. Also, the TGI in assay [7], in [8], in [9] and in assay [10] was > 100 µM each time.
`C=C(CNCCc1ccc(O)cc1)[C@@H]1CC[C@]2(CO)CC[C@]3(C)[C@H](CC[C@@H]4[C@@]5(C)CCC(=O)C(C)(C)[C@@H]5CC[C@]43C)[C@@H]12`: the GI50 is 1.68 µM in assay [1]; 1.69 µM in [2]; 1.77 µM in [3]; 1.86 µM in assay [4]; 1.62 µM in [5]; 1.69 µM in assay [6]. For the same compound, the GI50 was 1.75 µM in [7], 1.75 µM in [8], 1.3 µM in assay [9] and 1.69 µM in assay [10]. The TGI in [1] was determined as 3.3 µM; in [2] it was 3.26 µM; in [3], 3.76 µM; in assay [4], 4.72 µM; in assay [5], 3.02 µM; in assay [6], 3.09 µM. The TGI worked out at 3.27 µM in assay [7], 3.17 µM in [8], 2.58 µM in [9] and 3.23 µM in assay [10].
In the case of `O=C(Oc1ccc([N+](=O)[O-])cc1)N1CCN(Cc2cccc(Oc3ccccc3)c2)CC1`, the GI50 was > 100 µM in [1]; > 71.9 µM in assay [2]; > 100 µM in [3]; 34.1 µM in assay [4]; > 100 µM in assay [5]; 13.6 µM in assay [6]. Further, the GI50 in assay [7] was > 67.1 µM; in assay [8], > 100 µM; in [9], 8.17 µM; in assay [10], > 50.9 µM. For the same compound, the TGI in [1], in [2], in assay [3], in assay [4], in [5] and in [6] was > 100 µM throughout. The TGI in assay [7], in assay [8], in [9] and in assay [10] was > 100 µM throughout.
